Measurements reported in patent publication US8026245B2, “HIV replication inhibiting purine derivatives” (Janssen Pharmaceutica N.V., priority 2003, dated 2011).

Tests used:
[1] = Method B: cytotoxicity in mock-infected MT-4 cells engineered with GFP under a constitutional promotor; assay type: cell-based; conditions: human; Method B; mock-infected MT-4 cells with GFP, fluorescence reduced by 50%; read-out: pCC50 (−logCC50) (converted)
Experimental: (§1) In these cells, engineered with GFP (and an HIV-specific promotor), ongoing HIV-infection was measured fluorometrically. Cytotoxicity is measured in the same cells, but engineered with GFP under a constitutional promotor. The infection (or inhibition thereof) of HIV infected cells and the fluorescence of mock-infected cells is assessed by the fluorescent GFP signal generated by the two above mentioned cell lines.
(§2) The 50% cytotoxic concentration (CC50 in μM) was defined as the concentration of compound that reduced fluorescence of the mock-infected cells by 50%.

[2] = tested on: HIV-1; conditions: for pSI (pEC50 − pCC50): Method B, selectivity index, ratio of CC50 to EC50
[3] = tested on: HIV-1; assay: microbe, parasite or virus in culture; conditions: Human immunodeficiency virus 1, MT4, read-out: pEC50 (−logEC50) (converted)
[4] = tested on: mock-infected MT-4 cells; assay: Method B: cytotoxicity in mock-infected MT-4 cells engineered with GFP under a constitutional promotor; assay type: cell-based
Experimental: as §1, §2

SMILES	CC50 [1]	pSI (pEC50 − pCC50) [2]	EC50 [3]	pCC50 (−logCC50) [4]	pEC50 (−logEC50) [2]
COc1ccc(Cn2cnc3c(Nc4ccc(C#N)cc4)nc(Nc4c(C)cc(C#N)cc4C)nc32)cc1 [Compound 72]	> 25100 nM	>3.9	3.16 nM		
COc1cc(/C=C/C#N)cc(OC)c1Oc1nc(Nc2ccc(C#N)cc2)nc2[nH]cnc12 [Compound 35]		−3.5		4.9	8.4
COc1ccc(Cn2cnc3c(Nc4ccc(C#N)cc4)nc(Nc4c(C)cc(/C=C/C#N)cc4C)nc32)cc1 [Compound 73]	> 25100 nM	>3.7	5.01 nM		
Cc1cc(OCC#N)cc(C)c1Nc1nc(Nc2ccc(C#N)cc2)nc2[nH]cnc12 [Compound 31]		<−4.7		<4.6	9.3
COc1ccc(Cn2cnc3c(Nc4c(C)cc(/C=C/C#N)cc4Cl)nc(Nc4ccc(C#N)cc4)nc32)cc1 [Compound 14]		−2.8		5.5	8.3
COc1ccc(Cn2cnc3nc(Nc4ccc(C#N)cc4)nc(Oc4c(C)cc(/C=C/C(=O)N(C)C)cc4C)c32)cc1 [Compound 21]		−3.6		4.8	8.4
COc1cc(/C=C/C#N)cc(C)c1Nc1nc(Nc2ccc(C#N)cc2)nc2[nH]cnc12 [Compound 6]	794 nM	−2.9	1 nM		
C/C(C#N)=C(/C)c1cc(C)c(Nc2nc(Nc3ccc(C#N)cc3)nc3[nH]cnc23)c(C)c1 [Compound 65]		3.1		5.0	8.1
CCC(=CC#N)c1cc(C)c(Nc2nc(Nc3ccc(C#N)cc3)nc3c2ncn3C)c(C)c1 [Compound 59]		>3.9		<4.6	8.5
Cc1cc(C)c(Nc2nc(Nc3ccc(C#N)cc3)nc3c2ncn3C)c(C)c1 [Compound 45]		>4.6		<4.6	9.2
Cc1cc(C#N)cc(C)c1Nc1nc(Nc2ccc(C#N)cc2)nc2[nH]cnc12 [Compound 29]		−3.8		4.9	8.7
COc1cc(/C=C/C#N)cc(C)c1Nc1nc(Nc2ccc(C#N)cc2)nc2c1ncn2CCO [Compound 50]		3.4		5.8	9.2
Cc1cc(CCC#N)cc(C)c1Nc1nc(Nc2ccc(C#N)cc2)nc2[nH]cnc12 [Compound 32]		−3.5		4.8	8.3
COc1ccc(Cn2cnc3nc(Nc4ccc(C#N)cc4)nc(Oc4c(C)cc(/C=C/C(N)=O)cc4C)c32)cc1 [Compound 20]		−3.2		5.2	8.4
Cc1cc(/C=C/C(=O)N(C)C)cc(C)c1Nc1nc(Nc2ccc(C#N)cc2)nc2[nH]cnc12 [Compound 37]		−2.7		5.4	8.1
C/C(=C\C#N)c1cc(C)c(Nc2nc(Nc3ccc(C#N)cc3)nc3c2ncn3C)c(C)c1 [Compound 57]	> 25100 nM	>4.4	1 nM		
CCN(C)C(=O)/C=C/c1cc(C)c(Oc2nc(Nc3ccc(C#N)cc3)nc3ncn(Cc4ccc(OC)cc4)c23)c(C)c1 [Compound 1]	> 25100 nM	<−3.8	3.98 nM		
COc1ccc(Cn2cnc3nc(Nc4ccc(C#N)cc4)nc(Oc4c(OC)cc(/C=C/C#N)cc4OC)c32)cc1 [Compound 19]		<−4.6		<4.6	9.2
CCC(=CC#N)c1cc(C)c(Nc2nc(Nc3ccc(C#N)cc3)nc3[nH]cnc23)c(C)c1 [Compound 58]		3.2		5.1	8.3
COc1cc(C=C(C)C#N)cc(C)c1Nc1nc(Nc2ccc(C#N)cc2)nc2[nH]cnc12 [Compound 63]		3.3		5.1	8.4

SMILES	CC50 [1]	pSI (pEC50 − pCC50) [2]	EC50 [3]	pCC50 (−logCC50) [4]	pEC50 (−logEC50) [2]
Cc1cc(/C=C/C#N)cc(C)c1Nc1nc(Nc2ccc(C#N)cc2)nc2[nH]cnc12 [Compound 34]		−3.7		4.8	8.5
Cc1cc(/C=C/C#N)cc(Cl)c1Nc1nc(Nc2ccc(C#N)cc2)nc2[nH]cnc12 [Compound 54]		3.2		5.5	8.7
CC(C#N)=Cc1cc(C)c(Nc2nc(Nc3ccc(C#N)cc3)nc3[nH]cnc23)c(C)c1 [Compound 62]		>4.0		<4.6	8.6
CCOc1cc(C)c(Nc2nc(Nc3ccc(C#N)cc3)nc3[nH]cnc23)c(C)c1 [Compound 30]		−4.0		4.8	8.8
COc1cc(/C=C/C#N)cc(C)c1Nc1nc(Nc2ccc(C#N)cc2)nc2c1ncn2CC#N [Compound 52]	2000 nM	3.6	0.501 nM		
Cc1cc(/C=C/C#N)cc(C)c1Oc1nc(Nc2ccc(C#N)cc2)nc2[nH]cnc12 [Compound 33]		−3.5		5.0	8.5
CCn1cnc2c(Nc3c(C)cc(/C=C/C#N)cc3OC)nc(Nc3ccc(C#N)cc3)nc21 [Compound 48]	> 25100 nM	>4.6	0.631 nM		
COc1cc(/C=C/C#N)cc(Cl)c1Nc1nc(Nc2ccc(C#N)cc2)nc2[nH]cnc12 [Compound 53]		2.6		6.1	8.7
COc1ccc(Cn2cnc3c(Nc4c(C)cc(/C=C/C#N)cc4OC)nc(Nc4ccc(C#N)cc4)nc32)cc1 [Compound 2]	5010 nM	−3.7	1 nM		
COc1ccc(Cn2cnc3nc(Nc4ccc(C#N)cc4)nc(Oc4c(C)cc(/C=C/C#N)cc4C)c32)cc1 [Compound 4]	10000 nM	−3.4	3.98 nM		
Cc1cc(/C=C/C#N)cc(C)c1Nc1nc(Nc2ccc(C#N)cc2)nc2ncn(C)c12 [Compound 44]		3.3		4.7	
COc1ccc(Cn2cnc3c(Nc4c(C)cc(CCC#N)cc4C)nc(Nc4ccc(C#N)cc4)nc32)cc1 [Compound 13]		−3.1		5.2	8.2
N#C/C=C/c1cc(Cl)c(Nc2nc(Nc3ccc(C#N)cc3)nc3[nH]cnc23)c(Cl)c1 [Compound 55]		3.0		5.6	8.6
CCC(=CC#N)c1cc(C)c(Nc2nc(Nc3ccc(C#N)cc3)nc3c2ncn3CC#N)c(C)c1 [Compound 60]		3.6		5.0	8.6
CC(C#N)=Cc1cc(C)c(Nc2nc(Nc3ccc(C#N)cc3)nc3c2ncn3C)c(C)c1 [Compound 64]		>4.7		<4.6	9.3
COc1cc(OC)c(Nc2nc(Nc3ccc(C#N)cc3)nc3[nH]cnc23)c(OC)c1 [Compound 26]		−4.3		5.0	9.3
Cc1cc(C#N)cc(C)c1Nc1nc(Nc2ccc(C#N)cc2)nc2c1ncn2C [Compound 46]		>4.8		<4.6	9.4
CC(=CC#N)c1cc(C)c(Nc2nc(Nc3ccc(C#N)cc3)nc3[nH]cnc23)c(C)c1 [Compound 56]		>3.8		<4.6	8.4
COc1cc(/C=C/C#N)cc(C)c1Nc1nc(Nc2ccc(C#N)cc2)nc2c1ncn2C(C)C [Compound 49]		3.5		5.5	9.0
